Results from patent US12358932B2, “Chemical compounds” (BORAH, INC., priority 2019, dated 2025).

Experiments:
JAK = test: Biochemical Kinase Assay Protocol (JAK); settings: compound list; + = noted target activity, number of * = preference
Method: Biochemical Kinase Assay Protocol (JAK, TrkA, Syk, Tyk2)
Reagent: Base Reaction buffer; 20 mM Hepes (pH 7.5), 10 mM MgCl2, 1 mM EGTA, 0.02% Brij™ 35, 0.02 mg/ml BSA, 0.1 mM Na3VO4, 2 mM DTT, 1% DMSO, where required cofactors are added individually to each kinase reaction.
• 1. Prepare indicated substrate in freshly prepared Base Reaction Buffer • 2. Deliver any required cofactors to the substrate solution above • 3. Deliver indicated kinase (JAK or TrkA) into the substrate solution and gently mix • 4. Deliver compounds in DMSO into the kinase reaction mixture by Acoustic technology (Echo550; nanoliter range), incubate for 20 minutes at room temperature • 5. Deliver 33P-ATP into the reaction mixture to initiate the reaction. • 6. Incubate kinase reaction for 2 hours at room temperature • 7. Reactions are spotted onto P81 ion exchange paper • 8. Detect kinase activity by filter-binding method. PDE4B Phosphodiesterase Assay

Recombinant human PDE4B = target: T1, Recombinant human PDE4B (Homo sapiens, UniProt Q07343); test: PDE4B Phosphodiesterase Assay; assay type: biochemical; parameters: key to Activity Note: PDE4: The (+) symbols identify a compound of the present disclosure with the noted target activity; +*: The (*) symbols indicate preferential activity, where the greater number identifies the most preferred compounds; +**: The (*) symbols indicate preferential activity, where the greater number identifies the most preferred compounds; +***: The (*) symbols indicate preferential activity, where the greater number identifies the most preferred compounds; settings: compound list; + = noted target activity
T1 construct: aa 305-end; GST (N); made in house; host or cells: Sf9 insect cells (baculovirus)
T1 sequence (Q07343 305-736 limits assumed): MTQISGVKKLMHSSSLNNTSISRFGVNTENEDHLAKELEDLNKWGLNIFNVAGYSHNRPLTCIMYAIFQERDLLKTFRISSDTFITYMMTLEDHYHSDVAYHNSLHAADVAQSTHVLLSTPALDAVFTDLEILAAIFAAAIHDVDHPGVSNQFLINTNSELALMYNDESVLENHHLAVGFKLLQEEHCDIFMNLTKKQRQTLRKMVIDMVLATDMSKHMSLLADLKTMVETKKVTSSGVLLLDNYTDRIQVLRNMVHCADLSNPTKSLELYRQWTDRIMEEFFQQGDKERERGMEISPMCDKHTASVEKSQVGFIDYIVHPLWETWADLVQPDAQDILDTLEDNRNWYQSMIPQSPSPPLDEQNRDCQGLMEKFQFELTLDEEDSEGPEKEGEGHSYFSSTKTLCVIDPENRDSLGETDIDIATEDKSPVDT
Method: The assay is based on the fluorescence polarization measuring AMP/GMP production as a result of the enzyme activity by displacement of Tracer binding to the AMP/GMP antibody. • Reaction Buffer: 10 mM Tris-HCl, pH 7.5, 5 mM MgCl2, 0.01% Brij 35, 1 mM DTT and 1% DMSO. • Enzyme: Recombinant human PDE4B (Gene Accession #NM_002600; aa 305-end) was expressed by baculovirus in Sf9 insect cells using an N-terminal GST tag. Mw=78 kDa. • Substrate: 1 μM cAMP • Detection: Transcreener® AMP2/GMP2 Antibody AMP2/GMP2 AlexaFluor 633 Tracer Reaction Procedure: • 1. Prepared indicated enzyme and substrate in freshly prepared Reaction Buffer • 2. Delivered enzyme solution into the reaction well • 3. Delivered compounds in 100% DMSO into the enzyme solution by Acoustic technology (Echo550; nanoliter range), incubated for 10 min at room temperature • 4. Delivered substrate solution into the reaction well to initiate the reaction • 5. Incubated for 1 h at room temperature • 6. Added detection mixture (Tracer and antibody in the stop buffer) to stop the reaction and incubated for 90 min with gentle mixing. The fluorescence polarization was measured at Ex/Em 620/688.
Data Analysis: The FP signals were converted into nM product based on an AMP/GMP standard curve and calculated % Enzyme activity relative to DMSO control by Excel. The curve fit was performed using GraphPad prism.

Compound	Activity Note: JAK (JAK)	Activity Note: PDE4 (Recombinant human PDE4B)
CCC(CC)Nc1nc(Nc2cc(C)c3c(c2)C(C)(C)OB3O)ncc1C [3,3,7-trimethyl-5-((5-methyl-4-(pentan-3-ylamino)pyrimidin-2-yl)amino)benzo[c][1,2]oxaborol-1(3H)-ol]	JAK+***	–
Cc1cnc(Nc2cc(C)c3c(c2)C(C)(C)OB3O)nc1Nc1ccccc1 [3,3,7-trimethyl-5-((5-methyl-4-(phenylamino)pyrimidin-2-yl)amino)benzo[c][1,2]oxaborol-1(3H)-ol]	JAK+***	–
CCC(CC)Nc1nc(Nc2ccc3c(c2)C(C)(C)OB3O)ncc1C [3,3-dimethyl-5-((5-methyl-4-(pentan-3-ylamino)pyrimidin-2-yl)amino)benzo[c][1,2]oxaborol-1(3H)-ol]	JAK+***	–
Cc1cnc(Nc2ccc3c(c2)C(C)(C)OB3O)nc1Nc1ccccc1 [3,3-dimethyl-5-((5-methyl-4-(phenylamino)pyrimidin-2-yl)amino)benzo[c][1,2]oxaborol-1(3H)-ol]	JAK+***	–
Cc1cnc(Nc2ccc3c(c2)B(O)OC3(C)C)nc1Nc1cccc(S(C)(=O)=O)c1 [3,3-dimethyl-6-((5-methyl-4-((3-(methylsulfonyl)phenyl)amino)pyrimidin-2-yl)amino)benzo[c][1,2]oxaborol-1(3H)-ol]	JAK+**	–
CCC(CC)Nc1nc(Nc2cc(C)c3c(c2)C(C)OB3O)ncc1C (stereo not shown) [3,7-dimethyl-5-((5-methyl-4-(pentan-3-ylamino)pyrimidin-2-yl)amino)benzo[c][1,2]oxaborol-1(3H)-ol]	JAK+***	–
CCC(CC)Nc1nc(Nc2ccc3c(c2)C(C)OB3O)ncc1C (stereo not shown) [3-methyl-5-((5-methyl-4-(pentan-3-ylamino)pyrimidin-2-yl)amino)benzo[c][1,2]oxaborol-1(3H)-ol]	JAK+***	–
Cc1cnc(Nc2ccc3c(c2)C(C)OB3O)nc1Nc1ccccc1 (stereo not shown) [3-methyl-5-((5-methyl-4-(phenylamino)pyrimidin-2-yl)amino)benzo[c][1,2]oxaborol-1(3H)-ol]	JAK+***	–
Cc1cnc(Nc2ccc3c(c2)C(C)(C)OB3O)nc1NC1CCCC1 [5-((4-(cyclopentylamino)-5-methylpyrimidin-2-yl)amino)-3,3-dimethylbenzo[c][1,2]oxaborol-1(3H)-ol]	JAK+***	–
Cc1cnc(Nc2ccc3c(c2)C(C)OB3O)nc1NC1CCCC1 (stereo not shown) [5-((4-(cyclopentylamino)-5-methylpyrimidin-2-yl)amino)-3-methylbenzo[c][1,2]oxaborol-1(3H)-ol]	JAK+***	–
Cc1cnc(Nc2cc(C)c3c(c2)COB3O)nc1NC1CCCC1 [5-((4-(cyclopentylamino)-5-methylpyrimidin-2-yl)amino)-7-methylbenzo[c][1,2]oxaborol-1(3H)-ol]	JAK+***	–
CCc1cc(Nc2nccc(NC3CCCC3)n2)cc2c1B(O)OC2 [5-((4-(cyclopentylamino)pyrimidin-2-yl)amino)-7-ethylbenzo[c][1,2]oxaborol-1(3H)-ol]	JAK+**	–
Cc1cc(Nc2ncc(Cl)c(NC3CCCC3)n2)cc2c1B(O)OC2(C)C [5-((5-chloro-4-(cyclopentylamino)pyrimidin-2-yl)amino)-3,3,7-trimethylbenzo[c][1,2]oxaborol-1(3H)-ol]	JAK+***	–
CC1(C)OB(O)c2ccc(Nc3ncc(Cl)c(NC4CCCC4)n3)cc21 [5-((5-chloro-4-(cyclopentylamino)pyrimidin-2-yl)amino)-3,3-dimethylbenzo[c][1,2]oxaborol-1(3H)-ol]	JAK+***	–
CC1OB(O)c2ccc(Nc3ncc(Cl)c(NC4CCCC4)n3)cc21 (stereo not shown) [5-((5-chloro-4-(cyclopentylamino)pyrimidin-2-yl)amino)-3-methylbenzo[c][1,2]oxaborol-1(3H)-ol]	JAK+***	–
OB1OCc2cc(Nc3ncc(Cl)c(NC4CCCC4)n3)cc(C(F)(F)F)c21 [5-((5-chloro-4-(cyclopentylamino)pyrimidin-2-yl)amino)-7-(trifluoromethyl)benzo[c][1,2]oxaborol-1(3H)-ol]	JAK+***	–

Compound	Activity Note: JAK (JAK)	Activity Note: PDE4 (Recombinant human PDE4B)
CCc1cc(Nc2ncc(Cl)c(NC3CCCC3)n2)cc2c1B(O)OC2 [5-((5-chloro-4-(cyclopentylamino)pyrimidin-2-yl)amino)-7-ethylbenzo[c][1,2]oxaborol-1(3H)-ol]	JAK+***	–
Cc1cc(Nc2ncc(Cl)c(NC3CCCC3)n2)cc2c1B(O)OC2 [5-((5-chloro-4-(cyclopentylamino)pyrimidin-2-yl)amino)-7-methylbenzo[c][1,2]oxaborol-1(3H)-ol]	JAK+***	–
CCC(CC)Nc1nc(Nc2cc3c(c(C(F)(F)F)c2)B(O)OC3)ncc1C [5-((5-methyl-4-(pentan-3-ylamino)pyrimidin-2-yl)amino)-7-(trifluoromethyl)benzo[c][1,2]oxaborol-1(3H)-ol]	JAK+***	–
Cc1cnc(Nc2cc3c(c(C(F)(F)F)c2)B(O)OC3)nc1Nc1ccccc1 [5-((5-methyl-4-(phenylamino)pyrimidin-2-yl)amino)-7-(trifluoromethyl)benzo[c][1,2]oxaborol-1(3H)-ol]	JAK+***	–
Cc1cnc(Nc2ccc3c(c2)B(O)OC3)nc1N[C@H]1CC[C@H](CO)CC1 [6-((4-(((1r,4r)-4-(hydroxymethyl)cyclohexyl)amino)-5-methylpyrimidin-2-yl)amino)benzo[c][1,2]oxaborol-1(3H)-ol]	JAK+*	–
Cc1cnc(Nc2ccc3c(c2)B(O)OC3)nc1NC1CCCCC1 [6-((4-(cyclohexylamino)-5-methylpyrimidin-2-yl)amino)benzo[c][1,2]oxaborol-1(3H)-ol]	JAK+*	–
Cc1cnc(Nc2ccc3c(c2)CCOB3O)nc1NC1CCCC1 [6-((4-(cyclopentylamino)-5-methylpyrimidin-2-yl)amino)-3,4-dihydro-1H-benzo[c][1,2]oxaborinin-1-ol]	JAK+***	–
Cc1cnc(Nc2cc(C)c3c(c2)CCOB3O)nc1NC1CCCC1 [6-((4-(cyclopentylamino)-5-methylpyrimidin-2-yl)amino)-8-methyl-3,4-dihydro-1H-benzo[c][1,2]oxaborinin-1-ol]	JAK+*	–
CCCNc1nc(Nc2ccc3c(c2)B(O)OC3)ncc1I [6-((5-iodo-4-(propylamino)pyrimidin-2-yl)amino)benzo[c][1,2]oxaborol-1(3H)-ol]	JAK+*	–
Cc1cnc(Nc2ccc3c(c2)B(O)OC3)nc1NC1CCN(C)CC1 [6-((5-methyl-4-((1-methylpiperidin-4-yl)amino)pyrimidin-2-yl)amino)benzo[c][1,2]oxaborol-1(3H)-ol]	JAK+*	–
Cc1cnc(Nc2ccc3c(c2)B(O)OC3)nc1Nc1cccc(S(C)(=O)=O)c1 [6-((5-methyl-4-((3-(methylsulfonyl)phenyl)amino)pyrimidin-2-yl)amino)benzo[c][1,2]oxaborol-1(3H)-ol]	JAK+*	–
Cc1cnc(Nc2ccc3c(c2)B(O)OC3)nc1NC1CCC(C)CC1 (stereo not shown) [6-((5-methyl-4-((4-methylcyclohexyl)amino)pyrimidin-2-yl)amino)benzo[c][1,2]oxaborol-1(3H)-ol]	JAK+**	–
Cc1cnc(Nc2cc(F)c3c(c2)COB3O)nc1Nc1ccccc1 [7-fluoro-5-((5-methyl-4-(phenylamino)pyrimidin-2-yl)amino)benzo[c][1,2]oxaborol-1(3H)-ol]	–	+
Cc1cnc(N(C)c2ccc3c(c2)COB3O)nc1OC1CCCCC1 [drawing 151, 5-((4-(cyclohexyloxy)-5-methylpyrimidin-2-yl)(methyl)amino)benzo[c][1,2]oxaborol-1(3H)-ol]	–	+
CCOC(=O)c1cccc(Nc2nc(Nc3ccc4c(c3)COB4O)ncc2C)c1 [ethyl 3-((2-((1-hydroxy-1,3-dihydrobenzo[c][1,2]oxaborol-5-yl)amino)-5-methylpyrimidin-4-yl)amino)benzoate]	–	+
